Test results from patent US20240009232A1, “COMBINATION THERAPY COMPRISING HER-2-DC1 VACCINE AND A PROBIOTIC” (H. LEE MOFFITT CANCER CENTER AND RESEARCH INSTITUTE, INC., priority 2021, published 2024).

System: TUBO tumors
Assay: Mono- and combination therapies in HER2+ TUBO bearing mice (FIG. 8, FIG. 9)
Format: in vivo, Balb/C mice
Conditions: monotherapy
Procedure: Balb/C mice or C57BL/6 mice received tumor cells on day 0 followed by different treatments; two doses of Taxol given intraperitoneally (i.p.) once a week; CDK inhibitor, abemaciclib was administered by oral gavage till end point; Anti-PD-L1 was given i.p. twice a week until end point; DC1 vaccine was given intratumorally.
Balb/C mice bearing TUBO tumors were treated with intratumoral HER2-DC1 vaccine alone or anti-HER2 antibody or a combination of both.
TUBO bearing mice were treated with intratumoral HER2-DC1 vaccine alone or Abemaciclib or a combination of both.
Here, we can investigate the role of gut microbiome in response to combination therapy. […] Balb/C mice bearing TUBO tumors were treated with intratumoral HER-DC1 alone or anti-HER2 antibody (7.16.4+7.9.5) alone or combination of both. While CDK inhibitor, abemaciclib was given daily by oral gavage alone or in combination with intratumoral HER2-DC1.

SMILES: CC(=O)O[C@H]1C(=O)[C@@]2(C)[C@H]([C@H](OC(=O)c3ccccc3)[C@]3(O)C[C@H](OC(=O)[C@H](O)[C@@H](NC(=O)c4ccccc4)c4ccccc4)C(C)=C1C3(C)C)[C@]1(OC(C)=O)CO[C@@H]1C[C@@H]2O [taxol, paclitaxel]
- tumor growth: modestly delayed tumor growth
